Results on 7 compounds are retold here after patent US20230184756A1, “BIOMATERIALS” (INSTITUTO DE MEDICINA MOLECULAR JOÃO LOBO ANTUNES, priority 2020, published 2023).

Entries after “also recorded” stand apart in the source; their conditions may differ. Peptide text beside a SMILES is read from it.

A short description of data set [1]: Atomic force microscopy of amyloid fibril formation, morphology and dimensions. Type of data set: physicochemical. The following applies: AFM, 2 weeks incubation at physiologic pH. An excerpt:
According to experimental procedures at the host lab^57-59, the samples were placed in poly-1-lysine slides and dried using a vacuum chamber. When fully dried, the samples were rinsed with ultra-pure water and dried with a gentle N2 air flux. A NanoWizard II atomic force microscope (JPK Instruments, Berlin, Germany), mounted on the top of an Axiovert 200 inverted optical microscope (Zeiss, Jena, Germany), was used for the microscopic experiments. The AFM head is equipped with a 5.85-μm z-range linearized piezoelectric scanner and an infrared laser. For the acquisition of the different AFM images, it was used a ACL-50 tip (Applied NanoStructures, Inc., California, USA) with a spring constant between 20-95 N/m and a frequency between 145-230 kHz. Amyloid fibrils were acquired in intermittent (air) mode with a setpoint of between 0.4-0.5 V, a line rate of 0.7-0.8 Hz, an IGain of 20-50 Hz and a PGain of 0.001-0.004. The images acquired were treated afterwards with the JPKSPM Data Processing (JPK Instruments, Berlin, Germany).
The most promising amyloidogenic peptide is typically selected. For this purpose, atomic force microscopy (AFM) was employed. AFM is a technique that can be very useful in the acquisition of surface images with high resolution and sensibility, being therefore suitable for such studies of amyloid fibrils and employed in this analysis. […] Regarding GNNQQNY (FIG. 2, first row from the top), at the start of incubation there are no visible structures. At the end of the incubation period tested (2 weeks), heterogeneous structures are visible. […] In contrast, QVQIIE, ISFLIF and STVIIE peptides show amyloid morphologies at the end of the incubation period tested (FIG. 2). […] This is consistent with the β-sheet content of QVQIIE and ISFLIF at the end of the incubation period, measured via Fourier transform infrared spectroscopy (FIG. 12) and binding profile to Congo Red (FIG. 13). […] As for STVIIE, it forms clear fibril structures in the conditions tested. […]

Data set [2] is described as follows: Sample preparation: highest concentration at which the peptide fully dissolves. In kind it is physicochemical. The note with it: for highest final concentration that they were able to be fully dissolved: 50 mM Tris-HCl pH 7.5, 5 mM EDTA buffer, room temperature. The procedure: STVIIE, GNNQQNY, QVQIIE and ISFLIF were prepared at the highest final concentration that they were able to be fully dissolved, respectively 1 mg/mL (STVIIE and GNNQQNY), 0.55 mg/mL (QVQIIE) and 0.1 mg/mL (ISFLIF). For all peptide samples the final incubation buffer was 50 mM Tris-HCl pH 7.5, 5 mM EDTA buffer. Briefly, after weighing the peptide, half of the final volume of H2O ultrapure was added. A short vortex of approximately 1500 rpm and 30 seconds and an ultrasound bath of 280 seconds in water/ice were performed two times. The other half of the final volume was then added, containing 100 mM Tris-HCl pH 7.5, 10 mM EDTA buffer was added, with the peptide samples being therefore in the final incubation buffer. Before incubation, two other cycles of vortex and ultrasound bath were performed. The final peptide solution sample was incubated at room temperature.

Data set [3] deals with Human H4 neuroglioma cells. Briefly: LDH release cytotoxicity assay.
Data set [4] in a line: FTIR spectroscopy of secondary structure. In kind it is physicochemical. The following applies: followed for 6 hours. Here is the method: Following previous approaches^11,54, peptide samples were applied to the FTIR sample holder at 298.15 K. InfraRed spectra were recorded on a Bruker Tensor 27 infrared spectrophotometer (Bruker Optik GmbH, Ettlingen, Germany) equipped with a Bio-ATR II accessory. The spectrophotometer was continuously purged with dried air. Spectra were recorded at a spectral resolution of 4 cm^−1 and 120 accumulations were performed per measurement. The final spectra were corrected to the baseline (the final incubation buffer) and rescaled in the amide I area (˜1600 to ˜1700 cm^−1).
The formation of aggregates by STVIIE quickly leads the larger elements to deposit from solution. This hinders circular dichroism studies of STVIIE secondary structure. For this reason Fourier transform infra-red (FTIR) spectroscopy was used instead (FIG. 3f-g). The changes in secondary structure content were followed for 6 hours (FIG. 3f). Then, after 6 hours, when amyloid structures are readily visible (FIG. 3a), the experiment was terminated. This time frame is also chosen given that for nanotechnology applications short incubation periods can be necessary and/or preferable. The peptides spectra are consistent with antiparallel β-sheet/aggregated strands (1675-1695 cm^−1) and β-sheet (1625-1640 cm^−1) secondary structure being present (FIG. 3f). […]

In another data set the target is streptavidin (Streptomyces avidinii, UniProt P22629). Briefly: Binding to free streptavidin by intrinsic tryptophan fluorescence. The following applies: 0.8 μM streptavidin. An excerpt:
In terms of secondary structure, evaluated via Fourier Transform Infra Red (FITR) spectroscopy (FIG. 5b), the observations echo the results obtained with (non-biotinylated) STVIIE fibrils (confront with FIG. 3f). Addition, via a PEG9 linker, of a biotin moiety to STVIIE N-terminus results in biotin functionalized STVIIE amyloid fibrils. These fibrils show both the […] and the antiparallel cross β-sheet peaks, being quite similar to the spectra obtained with free (non-biotinylated) STVIIE. Then, the activity of the bioactive molecule (biotin) attached to the fibrils was tested, namely the ability to bind its target bridge element molecule (streptavidin), when free in solution (FIG. 5c-g). […] Briefly, the fluorescence intensity spectra of 0.8 μM streptavidin in solution, treated with buffer (FIG. 5c, leftmost graph), free biotin (FIG. 5c, second graph from the left), non-biotinylated free amyloid peptide (FIG. 5c, third from the left) or biotinylated amyloidogenic peptide fibrils (FIG. 5c, rightmost graph) were compared. A drop on the fluorescence signal (decreased quantum yield) accompanied by peak shifting towards the left (blue shift) indicates streptavidin binding to biotin (FIG. 5c). […] The addition of biotinylated peptide to streptavidin produces a similar blue shift of the fluorescence emission maximum (from 340 to 330 nm), as observed when free biotin is added. […]

Turning to GNNQQNY [short amyloidogenic peptide], in data set [1], the “morphology at end of incubation” value is “not consistent with the well-defined amyloid fibril morphology”. Also, the “highest final concentration that they were able to be fully dissolved” value in data set [2] is recorded as 1 mg/mL. For `CC[C@H](C)[C@H](NC(=O)[C@@H](NC(=O)[C@@H](NC(=O)[C@@H](N)CO)[C@@H](C)O)C(C)C)C(=O)N[C@H](C(=O)N[C@@H](CCC(=O)O)C(=O)O)[C@@H](C)CC` [STVIIE] (H-STVIIE-OH; N-terminus and C-terminus assumed), the “toxicity to cells (LDH release)” value in data set [3] (fibrils at 0.2, 2 and 20 μM, 6 and 24 hours) is given as “not toxic; also recorded: not cytotoxic”. Also, in data set [4], the “time for relative ratio of β-sheet secondary structure to stabilize” value was “less than 3 hours”. As for `CC[C@H](C)[C@H](N)C(=O)N[C@@H](CO)C(=O)N[C@@H](Cc1ccccc1)C(=O)N[C@@H](CC(C)C)C(=O)N[C@H](C(=O)N[C@@H](Cc1ccccc1)C(=O)O)[C@@H](C)CC` [ISFLIF] (H-ISFLIF-OH; N-terminus and C-terminus assumed), in data set [2] (physiological conditions), the “solubility in physiological conditions” value is “difficult to dissolve at high concentrations”.

In the case of “Aβ(1-42): Amyloid β peptide (involved in Alzheimer's disease), positive control of fibrillization [reference compound]”, in data set [1], the “morphology at end of incubation” value is “form typical amyloid fibrils”.

Compound Triton [reference compound] gave a cell death in data set [3] (0.2, 2.0 and 20 μM, 6 to 24 hours, buffer control 10-15%) of 100%. On to `O=C(O)CCCC[C@@H]1SC[C@@H]2NC(=O)N[C@@H]21` [biotin, 5-[(3aS,4S,6aR)-2-oxohexahydro-1H-thieno[3,4-d]imidazol-4-yl]pentanoic acid], for which, at streptavidin, the “concentration at which the peak shift achieves saturation” value is roughly 4 µM. For the same compound, the “blue shift of streptavidin fluorescence emission peak maximum” value on streptavidin (peptide and/or biotin 0 to 13.6 μM) was 10 nm. For the compound QVQIIE, in data set [1], the “morphology at end of incubation” value is recorded as “amyloid-like gel structure”. In addition, the “highest final concentration that they were able to be fully dissolved” value in data set [2] is reported as 0.55 mg/mL.
